Values joined by “and” are separate entries in the source; they are usually repeats but may differ in a detail not shown here. Identical values can stand only once.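 How tested: cells in 96-well plates exposed to compound for 48 hours at five concentrations. GI50 = concentration required for 50% inhibition of growth. TGI: concentration producing complete growth inhibition.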
Tests used:
Experiment in all cases: inhibition of tumour cell growth, NCI panel, 48 h
NCI-H226 lung = test system: NCI-H226 lung
SW-620 colon = test system: SW-620 colon
LOX IMVI melanoma = test system: LOX IMVI melanoma
PC-3 prostate = test system: PC-3 prostate
HCT-15 colon = test system: HCT-15 colon
UO-31 renal = test system: UO-31 renal
HOP-92 NSCLC = test system: HOP-92 NSCLC
TK-10 renal = test system: TK-10 renal

Compound | GI50 (NCI-H226 lung) | TGI (NCI-H226 lung) | GI50 (SW-620 colon) [µM] | TGI (SW-620 colon) [µM] | GI50 (LOX IMVI melanoma) [µM] | TGI (LOX IMVI melanoma) [µM] | GI50 (PC-3 prostate) | TGI (PC-3 prostate) | GI50 (HCT-15 colon) [µM] | TGI (HCT-15 colon) [µM] | GI50 (UO-31 renal) | TGI (UO-31 renal) | GI50 (HOP-92 NSCLC) [µM] | TGI (HOP-92 NSCLC) [µM] | GI50 (TK-10 renal) | TGI (TK-10 renal)
CCC[C@H](Nc1nc(-c2ccc(NC(=O)NCC)c(OC)c2)ncc1C)c1cccnc1 | 0.0531 µM | 25.7 µM | 0.0425 | > 88.4 | 0.0415 | 13.8 | 0.047 µM | > 55.6 µM | 0.112 | > 42.5 | 0.277 µM | 17.2 µM | 0.236 | 12.5 | 14.3 µM | 55.1 µM
COc1cc(/C=C/C(=O)CC(=O)/C=C/c2ccc(OC(=O)CCNC34CC5CC(CC(C5)C3)C4)c(OC)c2)ccc1OC(=O)CCNC12CC3CC(CC(C3)C1)C2 | 11.8 µM | 30.5 µM | 2.43 | 6.03 | 1.96 | 4.14 | 4.13 µM | 21.1 µM | 4.49 | 17.6 | 3.45 µM | 14.8 µM | 2.64 | 17.6 | 7.09 µM | 22.6 µM
Nc1ccn(C2OC(COP(=O)(O)O)C(O)C2O)c(=O)n1 (stereo not given) |  | > 100 µM |  | > 100 |  | > 100 |  | > 100 µM |  | > 100 |  | > 100 µM |  | > 100 |  | > 100 µM
CCCN1C(=O)/C(=C/c2ccc(O)cc2)SC1=Nc1ccccc1 | 30.3 µM | 54.1 µM | 37.8 | > 100 | 14.7 | 29.3 | 28.9 µM | 59.8 µM | 16.9 | 37.5 | 38.3 µM | > 100 µM | 20.3 | 46.5 | 18.6 µM | 38.5 µM
O=C(/C=C/C12c3ccccc3C(c3ccccc31)C1C(=O)NC(=O)C12)c1ccco1 (stereo not given) | 3.03 µM | 9.85 µM | 2.59 | 7.22 | 1.85 | 3.76 | 1.74 µM | 5 µM | 2.14 | 5.43 | 2.19 µM | 7.49 µM | 1.74 | 4.54 | 3.7 µM | 10.9 µM
c1cncc(-c2cc(-c3cc(-c4cccnc4)n[nH]3)[nH]n2)c1 |  | > 100 µM |  | > 100 |  | > 100 |  | > 100 µM |  | > 100 |  | > 100 µM |  | > 100 |  | > 100 µM
COc1cc(/C=C2\C[C@H]3[C@@H]4CC=C5C[C@@H](OC(C)=O)CC[C@]5(C)[C@H]4CC[C@]3(C)[C@H]2OC(C)=O)ccc1OCCCn1ccnc1 | 7.78 µM | 24.6 µM | 10.3 | > 30.1 | 7.46 | 14.9 | 11.5 µM | 29.1 µM | 7.5 | 16 | 12.7 µM | > 34 µM | 9.45 | 20 | 3.73 µM | 13.3 µM
O=C(CSc1nc2sc3c(c2c(=O)n1-c1ccccc1)CCCCC3)N/N=C/c1ccc(F)cc1 | 2.09 µM | 4.84 µM | 3.14 | 33.6 | 2.35 | 14.8 | 4.91 µM | 26.8 µM | 3.77 | > 100 | 3.77 µM | > 100 µM | 2.47 | 8.65 | 1.6 µM | 4.16 µM
O=C(CCc1ccc(O)c(O)c1)c1ccc(O)c(O)c1O |  | 36.2 µM |  | > 100 |  | > 100 |  | > 100 µM |  | 33 |  | > 100 µM |  | 68.4 |  | 47.3 µM
Cc1cc(Nc2ncc(Cl)c(Nc3ccccc3S(=O)(=O)C(C)C)n2)c(OC(C)C)cc1C1CCNCC1 | 1.29 µM and 1.56 µM and 1.7 µM | 3.1 µM and 3.95 µM and 4.25 µM | 0.776 | 2.61 | 1.36 | 2.71 | 1.42 µM and 0.793 µM | 2.92 µM and 2.07 µM | 1.21 | 2.59 | 1.29 µM and 1.14 µM | 2.63 µM and 2.36 µM | 0.346 | 1.55 | 1.42 µM and 1.33 µM | 2.76 µM and 2.61 µM
CC(=O)NC(Cc1c[nH]c2ccccc12)C(=O)O (stereo not given) |  | > 100 µM |  | > 100 |  | > 100 |  | > 100 µM |  | > 100 |  | > 100 µM |  | > 100 |  | > 100 µM
Cc1cc(S(=O)(=O)/N=C(\N)n2nc(C)c(C)c2C)c(SCc2ccccc2)cc1Cl | > 100 µM | > 100 µM | 72.7 | > 100 | > 100 | > 100 | 6.04 µM | > 100 µM | 7.1 | > 100 | 4.57 µM | > 100 µM | 3.17 | > 100 | > 100 µM | > 100 µM

— PubChem BioAssay (NCI)
